A word on the inhibition: it is the percentage by which the read-out fell short of the control. By melting point is commonly meant the temperature of the solid-liquid transition. The IC50 is the concentration that inhibits the measured activity by half.

Here are results for 22 molecules from publication PMC4832243, “Discovery of Potent VEGFR-2 Inhibitors based on Furopyrimidine and Thienopyrimidne Scaffolds as Cancer Targeting Agents” (Scientific Reports, 2016).

Data set [1] has as its system Ehrlich ascites carcinoma (EAC) solid tumor. The experiment in a line: In vivo anticancer activity, EAC solid tumor murine model. To be noted: 10 mg/kg/day po, once daily for 8 consecutive days. Also on record: species or system Swiss albino mice. The procedure: Animals. Female Swiss albino mice weighing 15–20 g were used in the present study. They were obtained from the animal breeding laboratory, National Cancer Institute (NCI), Cairo University, Egypt. Animals were kept in our animal facility, faculty of pharmacy, Ain Shams university at 25 ± 2 °C and a relative humidity of 40–45% with alternative day and night cycles of 12 h each. Animals had free access to pellet food and water ad libitum. Standard diet pellets (El-Nasr, Abu Zaabal, Egypt) contained not less than 20% protein, 5% fiber, 3.5% fat, 6.5% ash and a vitamin mixture. Animal care and experiments were conducted in accordance with the protocols approved by the Ethics Research Committee, Faculty of Pharmacy, Ain Shams University, following the Institutional Animal Care and Use Committee guidelines.
Tumor cells preparation and transplantation. Ehrlich ascites carcinoma (EAC) cells were obtained from NCI, Cairo University, Egypt. EAC cells were maintained in the ascitic form in Swiss albino mice by intraperitoneal transplantation of each mouse every 10 days. Ascitic fluid was drawn from tumor-bearing mice at the log phase (7–8th day of tumor bearing) of the tumor cells. The freshly drawn fluid was diluted with ice-cold sterile isotonic saline. 200 μl tumor cell suspension containing 2 × 10^6 tumor cells were then subcutaneously injected in each mouse.
Experimental design. Swiss albino mice were divided into six groups (n = 6 per group).
Evaluation of effectiveness. Tumor growth curve was drawn according to the change in tumor volume from first day of treatment (day 0) till day 7. Longest and shortest diameters of the solid tumor were monitored using a digital vernier caliper. Tumor volume (TV) of each animal was calculated using the following formula: […]
Tumor growth inhibition (TGI) was calculated as follows.
RTV = (Tumor volume at the day of measurement)/Tumor volume at the initial day.
Histopathological Examination
thickness by slidge microtome.
graded ethanol solutions.

The target of data set [2] is T1, VEGFR-2 (KDR) (Homo sapiens, UniProt P35968).
T1 construct: purchased BPS Bioscience 40301
T1 sequence (P35968 20-1356): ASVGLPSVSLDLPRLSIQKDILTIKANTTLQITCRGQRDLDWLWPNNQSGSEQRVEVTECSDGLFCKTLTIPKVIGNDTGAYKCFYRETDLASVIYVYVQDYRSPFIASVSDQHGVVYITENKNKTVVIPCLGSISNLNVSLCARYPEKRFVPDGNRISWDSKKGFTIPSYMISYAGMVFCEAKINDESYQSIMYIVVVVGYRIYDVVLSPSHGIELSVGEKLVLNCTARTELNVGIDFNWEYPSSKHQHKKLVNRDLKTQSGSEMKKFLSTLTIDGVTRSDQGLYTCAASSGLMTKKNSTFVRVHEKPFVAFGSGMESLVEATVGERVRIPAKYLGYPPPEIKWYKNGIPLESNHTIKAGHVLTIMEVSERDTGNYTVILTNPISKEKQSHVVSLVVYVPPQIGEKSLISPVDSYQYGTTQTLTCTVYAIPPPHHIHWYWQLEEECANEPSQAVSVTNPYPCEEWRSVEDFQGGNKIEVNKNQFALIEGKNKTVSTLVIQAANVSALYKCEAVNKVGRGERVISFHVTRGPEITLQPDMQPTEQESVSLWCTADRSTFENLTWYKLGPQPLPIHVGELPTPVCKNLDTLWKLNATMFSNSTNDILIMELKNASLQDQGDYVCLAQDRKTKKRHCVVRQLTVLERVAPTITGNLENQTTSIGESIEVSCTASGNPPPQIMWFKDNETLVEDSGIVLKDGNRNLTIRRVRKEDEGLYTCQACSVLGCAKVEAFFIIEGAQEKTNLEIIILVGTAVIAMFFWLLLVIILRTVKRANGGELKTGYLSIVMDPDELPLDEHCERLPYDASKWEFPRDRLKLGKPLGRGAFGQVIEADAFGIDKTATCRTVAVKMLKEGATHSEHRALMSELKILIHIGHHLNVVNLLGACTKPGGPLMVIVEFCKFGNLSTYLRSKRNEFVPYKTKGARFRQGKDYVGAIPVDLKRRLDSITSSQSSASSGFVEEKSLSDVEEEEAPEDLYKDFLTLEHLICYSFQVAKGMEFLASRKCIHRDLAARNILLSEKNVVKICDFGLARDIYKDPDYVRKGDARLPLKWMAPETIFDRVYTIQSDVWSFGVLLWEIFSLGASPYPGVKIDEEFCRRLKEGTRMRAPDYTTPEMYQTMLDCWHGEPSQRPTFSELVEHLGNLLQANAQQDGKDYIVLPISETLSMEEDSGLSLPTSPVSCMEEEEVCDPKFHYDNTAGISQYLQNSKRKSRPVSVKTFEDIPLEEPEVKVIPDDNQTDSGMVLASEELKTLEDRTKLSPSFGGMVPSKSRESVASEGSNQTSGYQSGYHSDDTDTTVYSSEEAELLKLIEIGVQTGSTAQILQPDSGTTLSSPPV
As to the kind of experiment: In vitro VEGFR-2 tyrosine kinase activity (Kinase-Glo Plus luminescence, BPS Bioscience). In kind it is biochemical. To be noted: for inhibition at 10 µM: single dose concentration of 10 μM; for IC50: 5 concentrations 1 nM - 10 μM. A general note: Kinase-Glo reads ATP consumption through a luciferase reaction.

Data set [3] deals with HUVEC umbilical vein endothelial cells. The experiment in a line: In vitro HUVEC anti-proliferative assay (alamarBlue). In kind it is cell-based. The following applies: Homo sapiens, HUVEC proliferation at 10 μM, 72 hours; for activity at 10 µM: read-out: % Cell growth; for inhibition at 10 µM: read-out: % Cell inhibition. A general note: Alamar Blue is a resazurin reagent that responds to reducing activity.

In data set [4] the target is c-Raf (Homo sapiens, UniProt P04049). As to the kind of experiment: In vitro multiple-kinase inhibition assay, c-Raf. In kind it is biochemical. The procedure:
(§1) In vitro multiple-kinase inhibition assay. […] Kinase enzymatic activity of the tested compounds was evaluated against a reference kinase inhibitor at 10 μM (Table 2).
(§2) The multiple kinases activity at single dose concentration of 10 μM was performed, c-Kit, c-Raf, c-Src, RET served as the enzyme source. […] Kinase-Glo Plus Luminescence kinase assay kit (Promega#V3772), ADP-Glo Luminescence assay kit was used for c-kit assay (Supplementary). […]
(§3) mM MgCl2, 0.1 mg/ml BSA, 1 mM DTT, 10 µM ATP, Kinase substrate and VEGFR. After the enzymatic reaction, 50 µl of Kinase-Glo Plus Luminescence kinase assay solution (Promega) was added to each reaction and incubate the plate for 5 minutes at room temperature.
(§4) Luminescence signal was measured using a BioTek Synergy 2 microplate reader. VEGFR activity assays were performed in duplicate at each concentration.
(§5) The luminescence data were analyzed using the computer software, Graphpad Prism. The difference between luminescence intensities in the absence of VEGFR (Lut) and in the presence of VEGFR (Luc) was defined as 100 % activity (Lut – Luc). Using luminescence signal (Lu) in the presence of the compound, % activity was calculated as:
(§6) % activity = {(Lut - Lu)/(Lut - Luc)}×100%, where Lu= the luminescence intensity in the […]
(§7) IC50 determination for inhibitor against VEGFR was calculated. The values of % activity versus a series of compound concentrations (1 nM - 10 nM - 100 nM - 1 µM - 10 µM) were then […]
(§8) or Hill coefficient. The IC50 value was determined by the concentration causing a half-maximal […]
(§9) In vitro multiple-kinase inhibition assay
(§10) Luminescence signal was measured using a BioTek Synergy 2 microplate reader […]
(§11) The luminescence data were analyzed using the same computer software and the same protocol

The target in data set [5] is RET (Homo sapiens, UniProt P07949). The experiment in a line: In vitro multiple-kinase inhibition assay, RET. In kind it is biochemical. The procedure:
as §1, §2, §3, §4, §5, §6, §7, §8, §9, §10, §11

In data set [6] the target is c-Src (Homo sapiens, UniProt P12931). The experiment in a line: In vitro multiple-kinase inhibition assay, c-Src. Format: biochemical. The procedure:
as §1, §2, §3, §4, §5, §6, §7, §8, §9, §10, §11

Data set [7] deals with c-Kit (Homo sapiens, UniProt P10721). As to the kind of experiment: In vitro multiple-kinase inhibition assay, c-Kit (ADP-Glo). In kind it is biochemical. On the procedure: as §1, §2, §3, §4, §5, §6, §7, §8, §9
Chain of c-Kit (P10721 26-976): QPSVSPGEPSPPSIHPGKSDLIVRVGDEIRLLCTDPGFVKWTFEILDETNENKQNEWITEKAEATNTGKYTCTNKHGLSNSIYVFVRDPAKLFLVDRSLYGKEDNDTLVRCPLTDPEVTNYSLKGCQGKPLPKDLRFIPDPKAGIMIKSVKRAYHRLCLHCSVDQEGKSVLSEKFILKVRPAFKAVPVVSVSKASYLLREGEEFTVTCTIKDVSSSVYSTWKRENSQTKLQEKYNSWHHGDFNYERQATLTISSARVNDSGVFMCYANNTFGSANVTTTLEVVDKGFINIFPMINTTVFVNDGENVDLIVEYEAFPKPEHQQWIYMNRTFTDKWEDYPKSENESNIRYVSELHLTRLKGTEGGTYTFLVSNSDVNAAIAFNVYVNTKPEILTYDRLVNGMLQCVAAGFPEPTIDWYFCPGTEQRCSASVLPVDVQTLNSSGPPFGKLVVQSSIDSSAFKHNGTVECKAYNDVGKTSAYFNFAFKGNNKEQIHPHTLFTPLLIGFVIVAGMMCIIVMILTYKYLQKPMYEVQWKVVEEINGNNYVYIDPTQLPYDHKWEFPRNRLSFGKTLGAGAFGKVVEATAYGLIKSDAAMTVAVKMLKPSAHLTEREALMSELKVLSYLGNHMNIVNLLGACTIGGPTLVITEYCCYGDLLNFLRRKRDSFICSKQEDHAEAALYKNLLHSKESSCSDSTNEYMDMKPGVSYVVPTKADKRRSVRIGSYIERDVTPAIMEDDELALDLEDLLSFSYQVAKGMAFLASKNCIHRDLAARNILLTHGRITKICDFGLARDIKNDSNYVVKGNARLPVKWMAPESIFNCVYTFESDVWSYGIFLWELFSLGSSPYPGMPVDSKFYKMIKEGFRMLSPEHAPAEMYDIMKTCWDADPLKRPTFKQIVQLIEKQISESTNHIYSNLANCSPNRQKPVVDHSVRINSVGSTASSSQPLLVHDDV
The assay was performed using the same conditions for VEGFR-2 activity assay (section 5.2.1.1). The assays for c-Kit was an exception, it was performed using ADP-Glo Kinase assay reagents (Promega). It measures kinase activity by quantitating the ADP amount produced from the enzymatic reaction. The luminescent signal from the assay is correlated with the amount of ADP present and is directly correlated with the amount of kinase activity. Other conditions are same to the previous section except the final reaction volume was reduced to 25 µl. After the 40 min kinase reaction at 30 °C, 25 µl of ADP-Glo reagent was added and incubated for 45 min at room temperature followed by another 50 min incubation with 50 µl of Kinase detection mixture.
as §10, §11

Chain of c-Src (P12931 whole entry, species assumed): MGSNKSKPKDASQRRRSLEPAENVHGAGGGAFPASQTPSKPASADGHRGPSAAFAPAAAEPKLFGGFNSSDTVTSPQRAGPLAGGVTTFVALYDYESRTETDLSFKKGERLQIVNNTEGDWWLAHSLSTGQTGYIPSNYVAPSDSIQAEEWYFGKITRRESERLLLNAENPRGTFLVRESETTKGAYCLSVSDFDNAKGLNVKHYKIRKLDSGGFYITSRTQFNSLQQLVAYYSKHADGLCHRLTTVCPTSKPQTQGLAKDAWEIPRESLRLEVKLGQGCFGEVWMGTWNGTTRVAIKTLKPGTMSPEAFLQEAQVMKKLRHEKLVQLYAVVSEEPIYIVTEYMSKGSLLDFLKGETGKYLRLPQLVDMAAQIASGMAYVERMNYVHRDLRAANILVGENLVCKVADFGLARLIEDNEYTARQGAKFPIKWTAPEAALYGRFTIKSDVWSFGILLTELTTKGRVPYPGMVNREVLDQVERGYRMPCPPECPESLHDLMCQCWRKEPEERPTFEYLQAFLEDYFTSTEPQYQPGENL
Chain of RET (P07949 29-1114, species assumed): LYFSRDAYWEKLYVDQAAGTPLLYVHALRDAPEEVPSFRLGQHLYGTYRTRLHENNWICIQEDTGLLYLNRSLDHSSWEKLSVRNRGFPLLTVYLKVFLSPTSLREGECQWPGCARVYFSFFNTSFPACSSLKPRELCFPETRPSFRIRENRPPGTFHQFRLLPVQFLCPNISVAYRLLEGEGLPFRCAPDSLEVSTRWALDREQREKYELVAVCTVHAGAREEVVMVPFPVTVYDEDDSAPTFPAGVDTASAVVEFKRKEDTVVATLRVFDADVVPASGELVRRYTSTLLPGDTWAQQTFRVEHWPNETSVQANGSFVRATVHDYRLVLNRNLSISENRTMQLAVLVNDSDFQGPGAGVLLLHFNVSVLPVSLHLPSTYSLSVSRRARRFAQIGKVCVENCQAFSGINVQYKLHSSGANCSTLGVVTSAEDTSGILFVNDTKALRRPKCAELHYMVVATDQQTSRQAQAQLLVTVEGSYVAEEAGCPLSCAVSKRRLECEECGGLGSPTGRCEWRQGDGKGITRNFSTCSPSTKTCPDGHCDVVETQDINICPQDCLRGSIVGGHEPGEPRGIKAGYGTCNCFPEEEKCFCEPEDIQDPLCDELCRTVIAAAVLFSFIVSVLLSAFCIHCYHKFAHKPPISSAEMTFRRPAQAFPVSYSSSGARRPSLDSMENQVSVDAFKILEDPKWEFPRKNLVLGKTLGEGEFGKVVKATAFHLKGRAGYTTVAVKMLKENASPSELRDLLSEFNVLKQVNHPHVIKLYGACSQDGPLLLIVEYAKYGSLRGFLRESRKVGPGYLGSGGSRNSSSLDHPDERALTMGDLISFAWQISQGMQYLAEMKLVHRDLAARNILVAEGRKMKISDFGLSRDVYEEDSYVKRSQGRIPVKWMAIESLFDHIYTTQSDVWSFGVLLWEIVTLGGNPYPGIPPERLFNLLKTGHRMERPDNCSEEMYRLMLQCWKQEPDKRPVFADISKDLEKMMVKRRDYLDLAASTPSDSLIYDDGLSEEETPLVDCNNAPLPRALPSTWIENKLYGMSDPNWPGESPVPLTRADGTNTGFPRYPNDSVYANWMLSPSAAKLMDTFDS
Chain of c-Raf (P04049 whole entry, species assumed): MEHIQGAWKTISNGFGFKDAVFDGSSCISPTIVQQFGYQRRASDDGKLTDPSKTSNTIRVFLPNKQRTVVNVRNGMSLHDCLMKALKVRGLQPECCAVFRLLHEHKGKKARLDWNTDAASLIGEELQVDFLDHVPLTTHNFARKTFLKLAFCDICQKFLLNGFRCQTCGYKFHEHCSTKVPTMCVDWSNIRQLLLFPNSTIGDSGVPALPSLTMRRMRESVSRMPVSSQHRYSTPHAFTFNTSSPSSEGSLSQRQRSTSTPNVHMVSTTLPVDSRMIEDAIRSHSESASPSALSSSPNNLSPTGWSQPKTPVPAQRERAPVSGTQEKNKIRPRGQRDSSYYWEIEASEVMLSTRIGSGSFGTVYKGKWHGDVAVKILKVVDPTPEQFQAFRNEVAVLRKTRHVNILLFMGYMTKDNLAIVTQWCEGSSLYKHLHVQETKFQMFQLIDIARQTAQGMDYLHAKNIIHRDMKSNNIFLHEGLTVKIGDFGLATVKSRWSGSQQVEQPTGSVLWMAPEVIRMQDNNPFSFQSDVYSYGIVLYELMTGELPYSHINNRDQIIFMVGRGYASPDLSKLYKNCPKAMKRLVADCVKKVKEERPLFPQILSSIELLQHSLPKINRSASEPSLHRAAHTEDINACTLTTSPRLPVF

Consider `CNC(=O)c1cc(Oc2ccc(NC(=O)Nc3ccc(Cl)c(C(F)(F)F)c3)cc2)ccn1.Cc1ccc(S(=O)(=O)O)cc1` [Sorafenib p-toluenesulfonate, sorafenib p-toluenesulfonate, reference compound], for which the “TGI (%)” value in data set [1] turned out to be 80.8%.
Molecule `CCOC(=O)c1c(C)oc2ncnc(Nc3ccc(C(=O)Nc4ccc(C)cc4)cc3)c12` [Compound 14c] displayed a melting point of 235 to 238 °C. In data set [2], the inhibition at 10 µM worked out at 14%.
Turning to `CCOC(=O)c1c(C)oc2ncnc(Oc3ccc(NC(=O)Nc4ccc(Cl)cc4)cc3)c12` [Compound 16d], the melting point lay within 215 to 219 °C. Also, the inhibition at 10 µM in data set [2] was 40%.
For `CCOC(=O)c1c(C)oc2ncnc(Nc3ccc(NC(=O)c4ccc(Cl)cc4)cc3)c12` [Compound 13b], in that order: > 250 °C and 15%.
Take `CCOC(=O)c1c(C)oc2ncnc(Oc3ccc(NC(=O)Nc4cccc(OC)c4)cc3)c12` [Compound 16c]: in data set [2], the IC50 was 551 nM. For the same molecule, in data set [3], the activity at 10 µM is 32.1% and the inhibition at 10 µM worked out at 67.9%.
With `CCOC(=O)c1c(C)oc2ncnc(Nc3ccc(NC(=O)Nc4ccccc4)cc3)c12` [Compound 15a], the inhibition at 10 µM in data set [2] came to 19%.
Regarding `CCOC(=O)c1c(C)oc2ncnc(Nc3ccc(NC(=O)Nc4ccc(C)c(Cl)c4)cc3)c12` [Compound 15f], the melting point was in the range of 254 to 256 °C. For the same molecule, the IC50 in data set [2] came out at 2100 nM. In addition, in data set [3], the activity at 10 µM came out at 97.7% and the inhibition at 10 µM was determined as 2.32%.
As to `Cc1ccc(NC(=O)Nc2ccc(Nc3ncnc4sc5c(c34)CCCC5)cc2)cc1Cl` [Compound 20f], the melting point is > 300 °C. For the same molecule, the inhibition at 10 µM in data set [2] is > 70%.
Regarding `O=C(Nc1ccc(Cl)cc1)Nc1ccc(Nc2ncnc3sc4c(c23)CCCC4)cc1` [Compound 20e], the melting point is > 300 °C. Moreover, the inhibition at 10 µM in data set [2] was 32%.
`CCOC(=O)c1c(C)oc2ncnc(Oc3ccc(NC(=O)Nc4ccc(C)c(Cl)c4)cc3)c12` [Compound 16e]: in data set [2], the IC50 is 122 nM. Also, the inhibition at 10 µM was > 70% in data set [2]; 11.1% in data set [3]; 53% in data set [4]; 84% in data set [5]; 1% in data set [6]; 72% in data set [7]. In data set [3], the activity at 10 µM stood at 88.9%.
Molecule `CCOC(=O)c1c(C)oc2ncnc(Oc3ccc(NC(=O)Nc4ccccc4)cc3)c12` [Compound 16a] registered a melting point of 183 to 185 °C. In addition, the inhibition at 10 µM in data set [2] was 27%.
Regarding `CCOC(=O)c1c(C)oc2ncnc(Nc3ccc(NC(=O)Nc4cccc(C)c4)cc3)c12` [Compound 15b], the melting point was > 250 °C. Further, the IC50 in data set [2] came to 946 nM. Also, in data set [3], the activity at 10 µM came out at 0.5% and the inhibition at 10 µM was 99.5%.
With `CCOC(=O)c1c(C)oc2ncnc(Nc3ccc(NC(=O)Nc4ccc(Cl)cc4)cc3)c12` [Compound 15e], the melting point is 262 to 265 °C. Also, the inhibition at 10 µM in data set [2] was found to be 14%.
For `CCOC(=O)c1c(C)oc2ncnc(Nc3ccc(NC(=O)Nc4cccc(OC)c4)cc3)c12` [Compound 15c] the same measures were 220 to 222 °C and 62%.
Molecule `CC(=O)c1cccc(NC(=O)Nc2ccc(Nc3ncnc4sc5c(c34)CCCC5)cc2)c1` [Compound 20g] came in with a melting point of 265 to 269 °C. For the same molecule, in data set [2], the IC50 amounted to 1500 nM and the inhibition at 10 µM was > 70%. Moreover, in data set [3], the activity at 10 µM was 29.2% and the inhibition at 10 µM came out at 70.8%.
For the molecule `CN[C@@H]1C[C@H]2O[C@@](C)([C@@H]1OC)n1c3ccccc3c3c4c(c5c6ccccc6n2c5c31)C(=O)NC4` [Staurosporine, reference compound], the inhibition at 1 µM in data set [6] (read-out: Inhibition %, c-Src, reference inhibitor) came to 98%.
`CCOC(=O)c1c(C)oc2ncnc(Nc3ccc(NC(=O)c4cccc(Cl)c4)cc3)c12` [Compound 13a] yielded a melting point of 232 to 236 °C. Further, the inhibition at 10 µM in data set [2] was 8%.
For `Cc1cccc(NC(=O)Nc2ccc(Nc3ncnc4sc5c(c34)CCCC5)cc2)c1` [Compound 20b], in that order: > 250 °C and 47%.
`CCOC(=O)c1c(C)oc2ncnc(Oc3ccc(NC(=O)Nc4cccc(C)c4)cc3)c12` [Compound 16b] returned a melting point of 116 to 119 °C. For the same molecule, in data set [2], the IC50 amounted to 1000 nM and the inhibition at 10 µM is > 70%. Moreover, in data set [3], the activity at 10 µM was determined as 73.3% and the inhibition at 10 µM was found to be 26.6%.
In turn, `CCOC(=O)c1c(C)oc2ncnc(Nc3ccc(NC(=O)Nc4cccc(C(C)=O)c4)cc3)c12` [Compound 15g] had a melting point of 240 to 244 °C. In addition, in data set [2], the inhibition at 10 µM was > 70%.
With `CCOC(=O)c1c(C)oc2ncnc(Nc3ccc(C(=O)Nc4ccc(Cl)c(C(F)(F)F)c4)cc3)c12` [Compound 14d], the melting point is 238 to 240 °C. The inhibition at 10 µM in data set [2] is 14%.
For `CCOC(=O)c1c(C)oc2ncnc(Nc3ccc(NC(=O)Nc4cccc(Br)c4)cc3)c12` [Compound 15h], in that order: 224 to 228 °C and 45%.
